Test results as given in paper PMC10269165 (Antimicrobial Agents and Chemotherapy, 2023).

Assay: WST-1 cytotoxicity assay in HCT-8 cells
Assay type: cell-based, human
Conditions: human, HCT-8 cells (human ileocecal colorectal adenocarcinoma), read-out: Mean IC50 ± SEM, Cytotoxicity
Protocol: Compounds were tested for cytotoxicity in human ileocecal colorectal adenocarcinoma cells (HCT-8) (ATCC CCL-244; RRID:CVCL_2478) by using the cell proliferation reagent WST-1 (Roche) according to the manufacturer’s protocol. The WST-1 assay is a quantitative colorimetric assay for measurement of metabolically active cells. This assay is based on the reduction of the tetrazolium salt (WST-1) by viable cells. About 5 × 10^4 HCT-8 cells were seeded per well in 96-well plates and grown overnight in 200 μL of RPMI 1640 medium (without phenol red; Gibco) supplemented with 2.5 g/L of glucose, 1 mM sodium pyruvate, 1.5 g/L of sodium bicarbonate, 10% heat-inactivated FBS (Gibco), and 1× antibiotic-antimycotic (Gibco) at 37°C with 5% CO2 in a humidified incubator. Upon reaching 80 to 90% confluence, cells were treated with various concentrations of the test compounds for 24 h. Control wells received equivalent volumes of DMSO used in the reconstituted compounds. After 24 h of culture, 10 μL of the WST-1 reagent was added to each well, and the plates were incubated in the dark for 1 h at 37°C with 5% CO2. The plates were well agitated, and 150 μL of the medium from each well was transferred to a new clear flat-bottomed black 96-well plate (Corning). The absorbance was read at a test wavelength of 440 nm and a reference wavelength of 690 nm using a multimode microplate reader (Spectra Max iD3; Molecular Devices, USA). All of the reactions were prepared in triplicate. The dose-response curves were generated by nonlinear regression analysis with GraphPad PRISM software using control-normalized data to determine the half-maximal cytotoxicity (IC50) concentrations.

| SMILES | IC50 at 24 h [µM] |
| --- | --- |
| O=c1c(O)cccc2cc(O)c(O)c(O)c12 [NSC35676, purpurogallin] | 566 ± 55.9 |
| CO[C@@]12[C@H](COC(N)=O)C3=C(C(=O)C(C)=C(N)C3=O)N1C[C@H]1[C@@H]2N1C (some centres unmarked) [NSC56410] | 188 ± 4.19 |
